The values below come from patent publication EP0713876A1, “Triazine derivative, chymase activity inhibitor and nitric oxide production inhibitor” (Wakamoto Pharmaceutical Co., Ltd., priority 1994, dated 1996).

Marks after values point to notes of the source that are not given here.

The first data set relates to mouse macrophage cell line, RAW264. Nature of the data set: Inhibition of LPS-induced nitric oxide (NO) production, nitrite by Griess reaction. The data set is classed as cell-based. The conditions noted are these: 10⁻⁵ M test compound, RAW264, 1 µg/ml LPS, 36hr. How it is done:
The mouse macrophage cell line, RAW264, obtained from the Riken Cell Bank, was cultured in RPMI-1640 medium without phenol red containing 10% inactivated fetal bovine serum and 100 µg/ml kanamycin at 37°C in 5% CO₂ in air. Cells were seeded into 96-well tissue culture plates (6x10⁴ cells/well) and allowed to adhere for 4 hr at 37 °C . To assess the effects of test compounds on induction of NO production, 100 µl of fresh culture medium containing them were added to the medium, followed by the additions of 1 µg/ml of LPS (E Coli 055, derived from B5 cell line, DIFCO Co.) to activate macrophage cells. At the same time, cultivation was conducted in the presence or absence of a test compound.
Since the measurement of NO is difficult due to the unstableness of NO, the nitrite ion (NO₂⁻) which is the oxidation product of NO was measured.
Productions of NO were assayed by measuring the concentrations of NO₂⁻ in culture medium by the Griess reaction by the method of Green et al. (Anal. Biochem., 126, 131-138, 1982). Nitrite accumulation in the cell culture medium was measured 36hr after LPS-stimulations. One hundred microliters of Griess reagents (1% sulfanylamide and 0.1% N-1-naphthylethylenediamine dichloride in 5% phosphoric acid) were added to 100 µl of cell culture medium at a room temperature. After 10 min, the optical densities at 550 nm (OD550) were measured by using a microplate reader.
In unstimulated RAW264 macrophages, NO₂⁻ production for 36 hr was not determined in the presence or absence of test compounds. Calculations of the inhibition% of NO production by the test compounds were carried out as depicted below. Inhibition% = (1-a/b)x100(%) [formula] a; the OD550 in presence of test compound b; the OD550 in absence of test compound IC₅₀ values were expressed as the concentrations (M) of test compounds producing 50% inhibition.
Regarding `Cc1ncn2c([S+]([O-])Cc3ccc(Cl)cc3)nnc(O)c12` (stereo not drawn) [Example 33, 4-(4-chlorobenzylsulfinyl)-1-hydroxy-8-methyl imidazo [1,5-d][1.2.4]triazine], the “Inhibition (%) of NO production at the concentration of 10⁻⁵ M” value (from here on “Inhibition (%) of NO production”) is 4 * %.

In the case of `[O-][S+](Cc1ccc(C(F)(F)F)cc1)c1nnc(OCc2ccc(C(F)(F)F)cc2)c2nccn12` (stereo not drawn) [Example 42, 8-(4-trifluoromethylbenzyloxy)-5-(4-trifluoromethylbenzylsulfinyl)imidazo[1,2-d][1.2.4]triazine], the “Inhibition (%) of NO production” value was 8 * %.

For the compound `[O-][S+](Cc1ccc(Cl)cc1)c1nnc(OCc2ccc(Cl)cc2)c2cccn12` (stereo not drawn) [Example 36, 1-(4-chlorobenzyloxy)-4-(4-chlorobenzylsulfinyl)pyrrolo [1,2-d][1.2.4]triazine], the “Inhibition (%) of NO production” value is listed as 31 * %. On the same count and under the same terms, the value for `[O-][S+](Cc1ccc(Cl)cc1)c1nnc(OCc2ccc(Cl)cc2)c2nccn12` (stereo not drawn) [Example 35, 8-(4-chlorobenzyloxy)-5-(4-chlorobenzylsulfinyl)imidazo[1,2-d][1.2.4]triazine] was 20 * %; that for `N#Cc1ccc(COc2nnc([S+]([O-])Cc3ccc(C#N)cc3)n3ccnc23)cc1` (stereo not drawn) [Example 41, 8-(4-cyanobenzyloxy)-5-(4-cyanobenzylsulfinyl)imidazo[1,2-d][1.2.4]triazine] was 49 * %. The same measure, in the same setting: the value for `[O-][S+](Cc1cccc(Cl)c1)c1nnc(OCc2cccc(Cl)c2)c2nccn12` (stereo not drawn) [Example 40, 8-(3-chlorobenzyloxy)-5-(3-chlorobenzylsulfinyl)imidazo[1,2-d][1.2.4]triazine] was 32 * %.

A further data set relates to ICR mice. Description: Single-dose toxicity. The data set is classed as in vivo. The conditions noted are these: male ICR mice, p.o. 500 mg/kg single dose, observed for 14 days. The procedure:
Ten Male ICR mice (4-week-old) were housed in each group. Test compounds were suspended in 0.5% aqueous sodium methyl cellulose, and then administered p.o. at the dose of 500 mg/kg to mice. Animals were then observed for 14 days and the mortality rate was determined. […]
As for `Cc1ncn2c([S+]([O-])Cc3ccc(Cl)cc3)nnc(OCc3ccc(Cl)cc3)c12` (stereo not drawn) [Example 53, 1-(4-chlorobenzyloxy)-4-(4-chlorobenzylsulfinyl)-8-methylimidazo[1,5-d][1.2.4]triazine], the “The number of death/ The number of animal” value (from here on “The number”) is recorded as 0/10. Consider `[O-][S+](Cc1ccc(Cl)cc1)c1nnc(O)c2nccn12` (stereo not drawn) [Example 31, 5-(4-chlorobenzylsulfinyl)-8-hydroxyimidazo[1,2-d][1.2.4]triazine], for which the “The number” value is listed as 0/10.

Turning to `Cc1ncn2c([S+]([O-])Cc3ccc(Cl)cc3)nn(Cc3ccc(Cl)cc3)c(=O)c12` (stereo not drawn) [Example 54, 2-(4-chlorobenzyl)-4-(4-chlorobenzylsulfinyl)-8-methyl imidazo[1,5-d][1.2.4]triazine-1(2H)-one], the “The number” value was 0/10. Consider `[O-][S+](Cc1ccc(Cl)cc1)c1nnc(O)c2cccn12` (stereo not drawn) [Example 29, 4-(4-chlorobenzylsulfinyl)-1-hydroxypyrrolo[1,2-d][1.2.4]triazine], for which the “The number” value is given as 0/10. In the case of `[O-][S+](Cc1ccc(Cl)cc1)c1nnc(OCc2ccc(Cl)cc2)c2nccn12` (stereo not drawn) [Example 35, 8-(4-chlorobenzyloxy)-5-(4-chlorobenzylsulfinyl)imidazo[1,2-d][1.2.4]triazine], the “The number” value is listed as 0/10.

The target of another data set is T1, rat mast cell chymase (Rattus norvegicus, UniProt P09650).
T1 construct: Chymase was partially purified from rat peritoneal cavity mast cells; from tissue; host or cells: peritoneal cavity mast cells of male Sprague Dawley rats
T1 sequence (P09650 21-260): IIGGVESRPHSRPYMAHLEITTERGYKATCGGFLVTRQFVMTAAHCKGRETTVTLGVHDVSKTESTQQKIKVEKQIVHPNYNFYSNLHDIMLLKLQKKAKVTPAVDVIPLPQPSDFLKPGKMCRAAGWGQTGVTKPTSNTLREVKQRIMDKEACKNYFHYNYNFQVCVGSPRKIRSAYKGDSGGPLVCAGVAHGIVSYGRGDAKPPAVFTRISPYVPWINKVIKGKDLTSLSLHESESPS
Description: Inhibition of chymase activity (chromogenic substrate N-Suc-Ala-Ala-Pro-Phe-p-nitroanilide). The data set is classed as biochemical. The settings on record: 10⁻⁵ M test compound. The procedure:
Mast cells were obtained from the peritoneal cavity of male Sprague Dawley(SD) rats by the method of Graziano et al. (Methods in Enzymol., 162, 501-514, 1988), layered on 75% Percoll (Pharmacia Biotech), and then purified to over 90% purity by centrifugation at 150xG for 15 min.
Chymase was partially purified from rat peritoneal cavity mast cells by the method of Kido et al. (Arch. Biochem. Biophys., 239, 436-443, 1985). Purified mast cells were quickly frozen and thawed several times and homogenized in a low ionic strength-buffer (pH6.5). The homogenate was centrifuged at 20,000xG for 20 min. The precipitate was re-homogenized in a high ionic strength-buffer (pH8.0) and cetrifuged at 20,000xG for 20 min. The supernatant was recovered and the enzyme was extracted. From the crude extract, chymase was partially purified by an Octyl-Sepharose CL-4B (Pharmacia Biotech) hydrophobic chromatography.
Ten microliters of test compounds in dimethyl sulfoxide (DMSO) were mixed with 250 µl of 60 mM Tris-HCl buffer (pH8.0) containing 0.2 M NaCl and 250 µl of 1 µg/ml chymase in buffer. The mixtures were pre-incubated for 5 min. at 37°C . After the addition of 500 µl of 0.6 mM chromogenic substrate, N-Suc-Ala-Ala-Pro-Phe-p-nitroanilide (Sigma), the reactions were carried out for 30 min. at 37 °C , and then stopped by the addition of 50 µl of 0.75 M acetic acid. The absorbances at 405nm were measured in a spectrophotometer, and the amount of p-nitroaniline released from the substrate was measured.
Calculations of the inhibition% of chymase by test compounds were carried out as below. Inhibition% = {1-(a-a' )/(b-b' ) } x 100 (%) [formula] a; the absorbance in presence of test compound. a'; the absorbance of non-reaction in presence of test compound. b; the absorbance in absence of test compound. b'; the absorbance of non-reaction in absence of test compound.
IC₅₀ values were expressed as the concentrations (M) of test compounds producing 50% inhibition.
`[O-][S+](CCCCl)c1nnc(OCCCCl)c2nccn12` (stereo not drawn) [Example 51, 8-(3-chloropropoxy)-5-(3-chloropropyl)sulfinylimidazo[1,2-d][1.2.4]triazine]: the “Inhibition (%) of chymase at a concentration of 10⁻⁵ M” value (“Inhibition (%) of chymase” for short) amounted to 50% *. Still for that read-out and setting: with `CC(C)c1ccc(COc2nnc([S+]([O-])Cc3ccc(C(C)C)cc3)n3ccnc23)cc1` (stereo not drawn) [Example 38, 8-(4-isopropylbenzyloxy)-5-(4-isopropylbenzylsulfinyl) imidazo[1,2-d][1,2,4]triazine] the figure was 41% *. For `CCOc1nnc([S+]([O-])CC)n2cnc(C)c12` (stereo not drawn) [Example 55, 1-ethoxy-4-ethylsulfinyl-8-methylimidazo[1,5-d][1.2.4]triazine], the “Inhibition (%) of chymase” value is 22% *.

Turning to `CCOc1nnc([S+]([O-])CC)n2ccnc12` (stereo not drawn) [Example 46, 8-ethoxy-5-ethylsulfinylimidazo[1,2-d][1.2.4]triazine], the “Inhibition (%) of chymase” value was 5 % *. With `[O-][S+](Cc1ccc(C(F)(F)F)cc1)c1nnc(OCc2ccc(C(F)(F)F)cc2)c2nccn12` (stereo not drawn) [Example 42, 8-(4-trifluoromethylbenzyloxy)-5-(4-trifluoromethylbenzylsulfinyl)imidazo[1,2-d][1.2.4]triazine], the “Inhibition (%) of chymase” value is recorded as 11%*. Turning to `CCOC(=O)COc1nnc([S+]([O-])CC(=O)OCC)n2ccnc12` (stereo not drawn) [Example 52, 8-ethoxycarbonylmethyloxy-5-ethoxycarbonylmeth ylsulfinylimidazo[1,2-d][1.2.4]triazine], the “Inhibition (%) of chymase” value was determined as 39% *. For the compound `CCn1nc([S+]([O-])CC)n2cnc(C)c2c1=O` (stereo not drawn) [Example 56, 2-ethyl-4-ethylsulfinyl-8-methylimidazo[1,5-d][1.2.4]triazine-1(2H)-one], the “Inhibition (%) of chymase” value is reported as 8% *.
